From US20150322083A1, “(THIENO[2,3-b][1,5]BENZOXAZEPIN-4-YL)PIPERAZIN-1-YL COMPOUNDS AS SELECTIVE 5-HT2A INVERSE AGONISTS” (Eli Lilly and Company, priority 2014, published 2015)

Experiments:
Dopamine D2 = Dopamine D2 (Homo sapiens, UniProt P14416); assay: Dopamine D2 binding
Protocol: Curves are evaluated using a 4-parameter logistic nonlinear equation to obtain the concentration of competitor causing 50% inhibition of radioligand binding (IC50). Equilibrium dissociation constants (Ki) are calculated according to the equation Ki=IC50/(1+L/Kd), where L equals the concentration of radioligand used in the experiment and Kd equals the equilibrium dissociation constant of the radioligand for the receptor, determined from standard saturation analysis or homologous competition experiments. Reported values for Ki, where n values are indicated, are shown as geometric mean±the standard error of the mean (SEM), with the number of replicate determinations indicated by n. Geometric means are calculated by the equation GeoMean=10̂(Average(log Ki 1+log Ki 2+ . . . log Ki n)/[…]).
Further, the compounds of the invention may be tested in binding assays and functional activity assays by well known methods for other physiologically important receptors such as, but not limited to, the hERG channel, other serotonin receptors (specifically 5-HT1B receptors, lack of agonist activity at 5-HT2B receptors, 5-HT2C, 5-HT5, 5-HT6, and 5-HT7 receptors), dopaminergic receptors (specifically D1, D2, and D3), H1 receptors, GABAA receptors, adrenergic receptors and monoamine transporters.

[1] = system: sleep and locomotor activity of rats; assay: Sleep and behavioral monitoring in rats (EEG, EMG, motion); type: in vivo; conditions: rat; for Rebound Insomnia, Adj. Mean: NREM + REM sleep in 7th-9th hours post-treatment; for Rebound Insomnia, Adj. Mean / REM inhibition, Adj. Mean / Cumulative NREM sleep, Adj. Mean / Cumulative Total sleep, Adj. Mean / Locomotor Activity Intensity, Adj. Mean: difference from vehicle; for REM inhibition, Adj. Mean: REM sleep in first 12 hr. post-treatment; for Average Sleep Bout, Adj. Mean / Longest Sleep Bout / Cumulative NREM sleep, Adj. Mean / Cumulative Total sleep, Adj. Mean / Locomotor Activity Intensity, Adj. Mean: first 6 hr. post-treatment
Description: Sleep and behavioral monitoring in rats: The compounds of the present invention may be tested in rats for their ability to increase the amount of sleep or decrease sleep interruption or both without undesired effects such as inhibition of REM sleep, waking motor impairment, and/or rebound insomnia. Test animals are continuously monitored by electro-encephalograms (EEG), electromyograms (EMG), and motion to measure cumulative nonREM sleep, cumulative total sleep, average sleep bout duration, longest sleep bout duration, rebound insomnia, REM sleep inhibition and locomotor activity intensity during wakefulness. Methods for such studies are known in the art (see for example methods described in Edgar D M, Seidel W F. Modafinil induces wakefulness without intensifying motor activity or subsequent rebound hypersomnolence in the rat. J Pharmacology & Experimental Therapeutics 1997; 283: 757-769; van Gelder R N, Edgar D M, Dement W C. Real-time automated sleep scoring: validation of a microcomputer-based system for mice. Sleep 1991, 14: 48-55; and Gross B A, Walsh C M, Turakhia A A, Booth V, Mashour G A, Poe G R. Open-source logic-based automated sleep scoring software using electrophysiological recordings in rats. J Neurosci Methods. 2009; 184(1):10-8.) Studies are conducted as follows:
Animal preparation. Adult, male Wistar rats (approximately 270-300 g at time of surgery) are surgically fitted for chronic recording of EEG, EMG, and motion as follows: Rats are surgically prepared with a cranial implant consisting of four stainless steel screws for EEG recording (two frontal [3.9 mm anterior from bregma, and ±2.0 mm mediolaterally] and two occipital [6.4 mm posterior from bregma, ±5.5 mm mediolaterally]), and with two Teflon-coated stainless steel wires for EMG recording (positioned under the nuchal trapezoid muscles). All leads are soldered to a miniature connector (Microtech, Boothwyn, Pa.) prior to surgery. The implant assembly is affixed to the skull by the combination of the stainless steel EEG recording screws, cyanoacrylate applied between the implant connector and skull, and dental acrylic. Locomotor activity is monitored via a miniature transmitter (Minimitter PDT4000G, Philips Respironics, Bend, Oreg.) surgically placed into the abdomen. At least 3 weeks are allowed for recovery.
Recording environment. Each rat is housed individually within a microisolator cage modified with an inserted polycarbonate filter-top riser to allow more vertical headroom. A flexible cable that minimally restricts movement is connected at one end to a commutator afixed to the cage top and at the other end to the animal's cranial implant. Each cage is located within separate, ventilated compartments of a stainless steel sleep-wake recording chamber. Food and water are available ad libitum and the ambient temperature is maintained at about 23±1° C. A 24-hr light-dark cycle (LD 12:12) using fluorescent light is maintained throughout the study. Relative humidity averages approximately 50%. Animals are undisturbed for at least 30 hrs before and after each treatment.
Study design and dosing. The vehicle (placebo, methylcellulose 15 centipoise 0.25% in water) or one of the test compound dose levels is administered orally at 1 mL/kg pseudo-randomly such that no rat receives the same treatment twice, and no rat receives more than two of the 8 treatments in any one study. Each rat is removed from its cage for about a minute to be weighed and treated. At least 6 days “washout” period precede and follow each treatment.
Data collection. […]

[2] = PO, 6 hr. after treatment, 4 parameter logistic regression

Dopamine D2, sequence (P14416 whole entry): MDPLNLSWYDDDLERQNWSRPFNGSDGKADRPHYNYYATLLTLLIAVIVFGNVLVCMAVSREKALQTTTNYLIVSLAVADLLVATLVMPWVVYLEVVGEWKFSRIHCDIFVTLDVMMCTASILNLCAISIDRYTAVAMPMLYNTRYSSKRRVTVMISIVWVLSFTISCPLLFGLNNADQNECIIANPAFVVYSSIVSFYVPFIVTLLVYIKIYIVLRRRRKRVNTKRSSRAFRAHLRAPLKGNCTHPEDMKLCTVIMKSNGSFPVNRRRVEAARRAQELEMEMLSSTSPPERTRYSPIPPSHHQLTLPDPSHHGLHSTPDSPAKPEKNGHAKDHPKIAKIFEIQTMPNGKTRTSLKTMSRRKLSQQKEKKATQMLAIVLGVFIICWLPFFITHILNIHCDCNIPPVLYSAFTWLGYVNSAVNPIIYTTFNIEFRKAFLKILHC

Cc1ccc2c(c1)Oc1sc(SC(C)C)cc1C(N1CCN(CC(C)(C)C(=O)O)CC1)=N2 [Example 1, 3-[4-(2-isopropylsulfanyl-8-methyl-thieno[2,3-b][1,5]benzoxazepin-4-yl)piperazin-1-yl]-2,2-dimethyl-propanoic acid]
Ki (Dopamine D2): > 7.66 µM
Rebound Insomnia, Adj. Mean ([1]; 0.1 mg/kg PO): -0.4 min
REM inhibition, Adj. Mean ([1]; 0.1 mg/kg PO): 0.5 min
Average Sleep Bout, Adj. Mean ([1]; 0.1 mg/kg PO): 1.09 n-fold increase over vehicle controls
Longest Sleep Bout ([1]; 0.1 mg/kg PO): 0.85 n-fold increase over vehicle controls
Cumulative NREM sleep, Adj. Mean ([1]; 0.1 mg/kg PO): 14.6 min
Cumulative Total sleep, Adj. Mean ([1]; 0.1 mg/kg PO): 13.1 min
Locomotor Activity Intensity, Adj. Mean ([1]; 0.1 mg/kg PO): −1.31 LMA counts per minute of EEG-defined wakefulness
Rebound Insomnia, Adj. Mean ([1]; 0.25 mg/kg PO): -1.0 min
REM inhibition, Adj. Mean ([1]; 0.25 mg/kg PO): 1.4 min
Average Sleep Bout, Adj. Mean ([1]; 0.25 mg/kg PO): 1.32 n-fold increase over vehicle controls
Longest Sleep Bout ([1]; 0.25 mg/kg PO): 1.49 n-fold increase over vehicle controls
Cumulative NREM sleep, Adj. Mean ([1]; 0.25 mg/kg PO): 17.8 min
Cumulative Total sleep, Adj. Mean ([1]; 0.25 mg/kg PO): 21.1 min
Locomotor Activity Intensity, Adj. Mean ([1]; 0.25 mg/kg PO): −1.22 LMA counts per minute of EEG-defined wakefulness
Rebound Insomnia, Adj. Mean ([1]; 0.5 mg/kg PO): 4.4 min
REM inhibition, Adj. Mean ([1]; 0.5 mg/kg PO): 6.6 min
Average Sleep Bout, Adj. Mean ([1]; 0.5 mg/kg PO): 1.75 n-fold increase over vehicle controls
Longest Sleep Bout ([1]; 0.5 mg/kg PO): 1.79 n-fold increase over vehicle controls
Cumulative NREM sleep, Adj. Mean ([1]; 0.5 mg/kg PO): 24.1 min
Cumulative Total sleep, Adj. Mean ([1]; 0.5 mg/kg PO): 28.2 min
Locomotor Activity Intensity, Adj. Mean ([1]; 0.5 mg/kg PO): −1.49 LMA counts per minute of EEG-defined wakefulness
Rebound Insomnia, Adj. Mean ([1]; 1 mg/kg PO): 1.5 min
REM inhibition, Adj. Mean ([1]; 1 mg/kg PO): 5.6 min
Average Sleep Bout, Adj. Mean ([1]; 1 mg/kg PO): 1.71 n-fold increase over vehicle controls
Longest Sleep Bout ([1]; 1 mg/kg PO): 1.89 n-fold increase over vehicle controls
Cumulative NREM sleep, Adj. Mean ([1]; 1 mg/kg PO): 30.0 min
Cumulative Total sleep, Adj. Mean ([1]; 1 mg/kg PO): 31.4 min
Locomotor Activity Intensity, Adj. Mean ([1]; 1 mg/kg PO): −4.04 LMA counts per minute of EEG-defined wakefulness
Rebound Insomnia, Adj. Mean ([1]; 3 mg/kg PO): 8.8 min
REM inhibition, Adj. Mean ([1]; 3 mg/kg PO): -1.4 min
Average Sleep Bout, Adj. Mean ([1]; 3 mg/kg PO): 1.75 n-fold increase over vehicle controls
Longest Sleep Bout ([1]; 3 mg/kg PO): 2.17 n-fold increase over vehicle controls
Cumulative NREM sleep, Adj. Mean ([1]; 3 mg/kg PO): 31.5 min
Cumulative Total sleep, Adj. Mean ([1]; 3 mg/kg PO): 32.8 min
Locomotor Activity Intensity, Adj. Mean ([1]; 3 mg/kg PO): −1.86 LMA counts per minute of EEG-defined wakefulness
Rebound Insomnia, Adj. Mean ([1]; 10 mg/kg PO): 2.5 min
REM inhibition, Adj. Mean ([1]; 10 mg/kg PO): -4.4 min
Average Sleep Bout, Adj. Mean ([1]; 10 mg/kg PO): 2.01 n-fold increase over vehicle controls
Longest Sleep Bout ([1]; 10 mg/kg PO): 2.29 n-fold increase over vehicle controls
Cumulative NREM sleep, Adj. Mean ([1]; 10 mg/kg PO): 38.3 min
Cumulative Total sleep, Adj. Mean ([1]; 10 mg/kg PO): 39.1 min
Locomotor Activity Intensity, Adj. Mean ([1]; 10 mg/kg PO): −1.90 LMA counts per minute of EEG-defined wakefulness
Rebound Insomnia, Adj. Mean ([1]; 20 mg/kg PO): 2.1 min
REM inhibition, Adj. Mean ([1]; 20 mg/kg PO): -9.3 min
Average Sleep Bout, Adj. Mean ([1]; 20 mg/kg PO): 1.88 n-fold increase over vehicle controls
Longest Sleep Bout ([1]; 20 mg/kg PO): 1.90 n-fold increase over vehicle controls
Cumulative NREM sleep, Adj. Mean ([1]; 20 mg/kg PO): 40.2 min
Cumulative Total sleep, Adj. Mean ([1]; 20 mg/kg PO): 38.0 min
Locomotor Activity Intensity, Adj. Mean ([1]; 20 mg/kg PO): −0.59 LMA counts per minute of EEG-defined wakefulness
apparent LMI impairment (in words) ([1]; 1 mg/kg PO): statistically significant at that dose
REM sleep inhibition versus threshold value of -10 min. (in words) ([1]; 20 mg/kg PO): exceeded the threshhold value
effect on cumulative NREM sleep time and cumulative total sleep time (in words) ([1]; PO): statistically significant increase
Estimated efficacy dose, Average sleep bout (1.5-fold increase) [1, 2]: 0.33 mg/kg
Estimated efficacy dose, Longest sleep bout (1.75-fold increase) [1, 2]: 0.45 mg/kg
Estimated efficacy dose, NREM accumulation = 30 min. [1, 2]: 1.5 mg/kg
Estimated efficacy dose, Total sleep accumulation = 25 min. [1, 2]: 0.39 mg/kg
rebound insomnia or REM sleep inhibition (in words) ([1]; PO, at up to 10 times the conservative efficacy dose): without statistically significant rebound insomnia or REM sleep inhibition
